Measured values published in patent US5830902A, “Quinuclidine derivative having tricyclic hetero condensed ring” (Yamanouchi Pharmaceutical Co., Ltd., priority 1995, dated 1998).
Where a name gives a salt, the structure may show the parent alone. Read-outs that look alike come from different tables or passages of the source.

Tests used:
human squalene synthase = target: T1, human squalene synthase (Homo sapiens, UniProt P37268); assay: Test on human squalene synthase inhibition (HepG2 microsomal fraction); assay type: biochemical
T1 construct: endogenous in cells; host or cells: HepG2 human hepatoma cells (microsomal fraction)
T1 sequence (P37268 1-417): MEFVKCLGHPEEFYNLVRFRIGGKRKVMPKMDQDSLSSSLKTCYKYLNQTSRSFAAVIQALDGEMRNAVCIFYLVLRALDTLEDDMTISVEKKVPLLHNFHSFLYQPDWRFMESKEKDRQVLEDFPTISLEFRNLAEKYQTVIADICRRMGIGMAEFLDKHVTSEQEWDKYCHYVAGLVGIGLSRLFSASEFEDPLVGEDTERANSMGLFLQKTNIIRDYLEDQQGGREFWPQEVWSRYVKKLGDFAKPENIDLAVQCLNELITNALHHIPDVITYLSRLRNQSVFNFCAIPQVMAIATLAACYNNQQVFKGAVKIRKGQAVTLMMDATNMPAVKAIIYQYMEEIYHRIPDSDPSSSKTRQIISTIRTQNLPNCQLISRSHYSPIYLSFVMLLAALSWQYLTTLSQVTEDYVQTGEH
Procedure: A. Test on human squalene synthase inhibition
(1) Preparation of squalene synthase from human hepatoma cells
Human hepatoma cells (HepG2 cells) were cultured using DMEM containing 10% FBS until a single layer was formed, and then the medium was replaced by DMEM supplemented with 10% human lipoprotein deficient serum (LPDS) to carry out 24 hours of culturing. The cells were washed twice with PBS, collected using a Rubber Policeman and subjected to centrifugation. The resulting precipitate was homogenized in five volumes of 50 mM Hepes buffer (pH 7.5) containing 5 mM EDTA and centrifuged at 20,000×g for 15 minutes. The supernatant was again subjected to the same centrifugation. The supernatant was subjected to 1 hour of centrifugation at 100,000×g, and the microsomes obtained were suspended in the same buffer and used in the test as a HepG2 squalene synthase fraction.
(2) Measurement of squalene synthase inhibiting activity
A dimethyl sulfoxide solution of each drug to be tested was added to a solution of the squalene synthase fraction prepared above (protein 10 ng, 50 mM Hepes buffer (pH 7.5)), 11 mM NaF, 5.5 mM MgCl2, 3 mM DTT, 1 mM NADPH, 1 mM pyrophosphate and 2.5 μM ^3 H-FPP, and the mixture was adjusted to a total volume of 0.2 ml and shaken at 30° C. for 20 minutes to effect the reaction. The reaction was terminated by adding 100 μl of 20% potassium hydroxide-50% ethanol solution, and the reaction solution was heated at 65° C. for 30 minutes. The un-saponified material was extracted with petroleum ether, and 1/3 volume thereof was subjected to measurement by a liquid scintillation counter. The ^3 H radioactivity of the un-saponified material was regarded as products down stream of squalene in the cholesterol biosynthesis system, and the squalene synthase inhibiting action was calculated by comparing ^3 H radioactivities of the test group and control group.
In addition, concentration of each compound of the present invention to inhibit 50% of squalene synthase (IC50 value) was obtained by calculation.

[1] = Cholesterol lowering action in hamster; assay type: in vivo; settings: male golden hamsters; 50 mg/kg in 0.5% methyl cellulose, administered by force; 5 days; blood 2 hours after final administration
Procedure: C. Cholesterol lowering action in hamster
Male golden hamsters (130 to 150 g) which have been treated by reversing night and day since 12 or more days before the commencement of administration were divided into groups 4 days before the administration in such a manner that the cholesterol value became the same among the groups. Each drug was prepared as a 0.5% methyl cellulose solution and administered by force in a dosage of 50 mg/kg. In this case, the liquid volume was 10 ml/kg.
The administration was carried out continuously for 4 days at around A.M. 11:00 under satiated condition and then on the fifth day after 16 hours of fasting. After 2 hours of the final administration, blood samples were collected from the abdominal vena cava under diethyl ether anesthesia and their cholesterol values were measured using an automatic analyzer (Hitachi 736).

[2] = test system: enzyme located at a downstream stage of the cholesterol biosynthesis system; settings: background art; cited from earlier work

Row | SMILES | IC50 (human squalene synthase; squalene synthase derived from human hepatoma (HepG2) cells, 2.5 μM 3H-FPP, 30° C., 20 minutes, read-out: IC50 value of squalene synthase inhibiting activity) [nM] | Lowering ratio (cholesterol) [1] [%] | IC50 (human squalene synthase) [nM] | desmosterol accumulation / cataracts [2]
1 | F/C(COc1ccc2c(c1)[nH]c1ccccc12)=C1/CN2CCC1CC2 [Example 1, (E)-3-[2-(Carbazol-2-yloxy)-1-fluoroethylidene]quinuclidine hydrochloride] | 79 | 57 | – | –
2 | C(/COc1ccc2c(c1)[nH]c1ccccc12)=C1/CN2CCC1CC2.Cl [Example 2, (Z)-3-[2-(Carbazol-2-yloxy)ethylidene]quinuclidine hydrochloride] | – | 39 | 59 | –
3 | CN1c2ccccc2Sc2cc(COC3CN4CCC3CC4)ccc21.Cl (stereo not shown) [Example 17, 3-(10-Methylphenothiazin-3-ylmethoxy)quinuclidine hydrochloride] | – | 46 | 85 | –
4 | CCN(CC)CCOc1ccc(C(O)(Cc2ccc(Cl)cc2)c2ccc(C)cc2)cc1 (stereo not shown) [triparanol] | – | – | – | accumulates desmosterol which causes the cataracts
